Test results reported in patent US11286231B2, “Hydrogen-bonding compounds, compositions comprising the same, and methods of preparing and using the same” (Wake Forest University Health Sciences, priority 2016, dated 2022).

Assays:
[1] = Oscillatory shear-stress sweep test, shear elastic modulus G′ of HyStem hydrogels; assay type: physicochemical
Protocol: (§1) To a 2 mL centrifuge tube, 200 μL of Heprasil® solution (1% w/v solution, thiolated HA component of HyStem kit), 200 μL of Gelin-S® solution (1% w/v, thiolated gelatin component of HyStem kit), 50 μL of Extralink® solution (2% w/v, polyethylene glycol diacrylate component of HyStem kit), and 50 μL of a modular catecholamine (C1.1) or amide […] solutions (0.25%-1.5% w/v, see Rheology section for specifics) were added and mixed by softly pipetting the solution up and down carefully to avoid creating bubbles. For control experiments the modular catecholamide or amine solutions were replaced with an equivalent volume of sterile deionized water. For rheology or cell culture studies, the reaction mixture was placed into wells of an appropriate size and exposed to UV radiation (˜222 nm) for 1-5 seconds.
A Discovery HR-2 Rheometer (TA Instruments, New Castle, Del.) with an 8 mm geometry was used to collect the rheological data. After reaction set-up, 200 μL of the reaction mixture was transferred into a 12 mm diameter×5 mm depth PDMS well. The PDMS well containing the reaction mixture was then exposed to UV radiation for 5 seconds at a distance of 1 cm. Photo-initiated polymerization and formation of a hydrogel occurred instantaneously. To ensure standard conditions across all experiments the geometry was lowered into the gels until a calibration normal force of 0.4N was achieved. Following, an oscillatory shear-stress sweep test (0.6-10.0 Pa, 1.0 Hz, 25° C.) was applied to hydrogels containing varying concentrations (0%, 1.0%, and 1.5% w/v) of modular amine compounds, C1.1 and C1.2. This experiment was repeated in triplicate for each condition. Average shear elastic modulus, G′, values were determined for each condition.
Shear-stress sweep tests (0.6-10.0 Pa, 1.0 Hz, 25° C.) were applied to hydrogels containing varying solution concentrations (0%, 1.0%, and 1.5% WAV) of modular amine compounds, C1.1/C1.2. Reported here are the average shear elastic modulus G′ values for n=3 runs for each condition (FIGS. 3 and 4). The reported uncertainties were calculated from standard deviations between n=3 averaged G′ values of each condition. In FIG. 3 we report the following G′ values: (2.136×10^3+/−3.988×10^2) Pa for the HyStem® control, (3.166×103+/−6.772×10^2) Pa for the HyStem®+1% w/v catecholamine, and (3.648×103+/8.047×102) Pa for the HyStem®+1.5% w/v catecholamine. […] Thus it was observed that when increasing the % w/v of the catecholamine (C1.1) solution used from 0% w/v, 1% w/v, 1.5% w/v, a proportional increase in G′ was observed, i.e., 1 equivalent of C1.1=1000 Pa increase in G′ and 1.5 equivalent=1500 Pa increase in the G′ of the hydrogel matrix.

[2] = Rheometer tensile strength T′ (adhesive force) test of HyStem hydrogels; assay type: physicochemical; conditions: for increase in T′ when concentration is doubled: 0.25% to 0.50% to 1.0% w/v; for fold increase in tensile strength T′: 1.0% w/v solution; for tensile strength T′: n=3
Protocol: as §1
A Discovery HR-2 Rheometer (TA Instruments) with an 8 mm geometry was used to collect the tensile strength, T′, data. The test was designed to quantify the axial force (Pa) exerted by the hydrogel on the geometry as measured by the rheometer as the geometry is slowly raised over 2000 μm at 25° C. The absolute value of the axial force (Pa) was then taken to be the adhesive force or tensile strength T′ (Pa) assigned to the hydrogel. To ensure standard conditions across all experiments the geometry was lowered into the gels until a calibration force of 0.4N was observed. Following, a rheometer tensile strength test was applied to the hydrogels at each of the respective conditions containing varying concentrations (0% w/v, 0.25% w/v, 0.50% w/v, and 1.0% w/v) of modular amine compounds, C1.0-C1.2. This experiment was repeated in triplicate for each condition.
While not wishing to be bound to any particular theory, our assumption here is that increased intermolecular interactions are occurring with the C1.2. In addition to the ortho-dihydroxyl groups offered by the catechol moiety, the amide moiety offers an extra hydrogen […] species, the carbonyl oxygen (C═O), for intermolecular interactions between the adjacent catecholamides. The catecholamides located on different HA chains or gelatin increase the ability for the hydrogel matrix to both interact with itself and other substrates through hydrogen bonding. Whereas the amine (C1.1) has a secondary carbon in the same position as the carbonyl functional group on the amide (C1.2), we postulate that the lack of this hydrogen bonding position yields a lower increase in G′ observed in hydrogel when comparing the two compounds. Again, to ensure standard conditions across all experiments, the geometry was lowered into the gels until a calibration force of 0.4N was detected. Following, a tensile strength test (25 μm/s, […], 25° C.) was applied to hydrogels containing varying concentrations (0%, 0.25%, […], and 1.0% w/v) of modular amine solutions, C1.1/C1.2. The reported values are the average T′ (Pa) values for n=3 runs at every condition and uncertainties were calculated from standard deviations between n=3 averaged T′ (Pa) for each condition. In FIG. 4, we report the following T′ (Pa) values for hydrogels containing C1.1: (1.10×10^2+/−2.91×10^1) Pa for Hystem® control, (2.90×10^2+/−1.23×10^2) Pa for Hystem®+0.25% w/v catecholamine, (4.25×10^2+/−1.01×10^2) Pa for Hystem® +0.50% w/v catecholamine, and (8.48×10^2+/−1.42×10^2) Pa for Hystem®+1.0% w/v catecholamine. […] In addition, we collected the following T′ values (Pa) for hydrogels containing C1.2: (1.09×10^2+3.64×10^1) Pa for Hystem® control, (3.33×10^2+/−6.16×10^1) Pa for Hystem®+0.25% w/v catecholamide, (4.12×10^2+/−6.39×10^1) Pa for Hystem®+0.50% w/v catecholamide, and (1.16×10^3+/−6.34×10^1) Pa for Hystem®+1.0% w/v catecholamide. […] Conclusively, we can say the increase in allotted tensile strength T′ (Pa) of the hydrogels when cross comparing compounds, C1.1 and C1.2, is due to the amide moiety having higher hydrogen bonding capacities.

[3] = Hystem + 0.25% w/v compound solution
[4] = Hystem + 0.50% w/v compound solution
[5] = Hystem + 1.0% w/v compound solution

Structure (SMILES) | increase in G′ vs HyStem control ([1]; 1.0% w/v compound solution) | increase in G′ over gels containing 1.0% w/v C1.1 ([1]; 1.5% w/v C1.1 solution) | increase in G′ vs HyStem control ([1]; 1.5% w/v compound solution) | increase in T′ when concentration is doubled [2] | fold increase in tensile strength T′ [2] | tensile strength T′ [2, 3] | increase in T′, 0.50% w/v to 1.0% w/v ([2]; Hystem + 0.50% w/v compared to Hystem + 1.0% w/v) | tensile strength T′ [2, 4] | tensile strength T′ [2, 5] | higher increase in G′ over gels containing 1.0% w/v C1.1 solution ([1]; 1.0% w/v C1.2 solution) | shear elastic modulus G′ ([1]; Hystem + 1.0% w/v compound solution, n=3)
C#CCNCc1ccc(O)c(O)c1 [Compound C1.1] | ~1.029×10^3+/−3.280×10^1 Pa | 477 pa | 1.512×10^3+/−3.469×10^1 Pa | ~100% | approximately 4 fold | 2.90×10^2+/−1.23×10^2 Pa | 4.13×10^2+/−1.56×10^1 Pa | 4.25×10^2+/−1.01×10^2 Pa | 8.48×10^2+/−1.42×10^2 Pa |  | 
C#CCNC(=O)Cc1ccc(O)c(O)c1 [Compound C1.2] | ~1.817×10^3+/−2.457×10^1 Pa |  | 1.989×10^3+/−1.378×10^1 Pa | 200% | ~6 fold | 3.33×10^2+/−6.16×10^1 Pa |  | 4.12×10^2+/−6.39×10^1 Pa | 1.16×10^3+/−6.34×10^1 Pa | 788 Pa | 3.953×10^3+/−1.160×10^2 Pa
